Results as given in paper PMC3183052, “Immunoprotectivity of HLA-A2 CTL Peptides Derived from Respiratory Syncytial Virus Fusion Protein in HLA-A2 Transgenic Mouse” (PLoS ONE, 2011).

Key:
HLA-A*0201 = biological target: T1, HLA-A*0201 (Homo sapiens, UniProt P04439, D140Y/D185E/D98H/E176V/E277Q/G131W/G231S/I119V/I121R/I166T/I218V/L300P/L318F/N151K/N90K/P208A/P217A/Q86G/Q94H/R138H/R169H/T345S); assay: T2 cell-stabilization assay (T2-binding); conditions: T2 cells 5×10^5, peptide 50 µg/mL + β2-microglobulin 5 µg/mL, 28°C 16–18 h, then brefeldin A 10 µg/mL 37°C 3 h; FITC anti-HLA-A2, flow cytometry; MFI relative to negative control HCV C55-74 (set as 1)
T1 construct: Human T2 cells (purchased from the American Type Culture Collection, ATCC) (ATCC No. CRL-1992) expressing the HLA-A*0201 gene; endogenous in cells; host or cells: human T2 cells (ATCC CRL-1992)
In short: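 T2 cells were pulsed with 9-mer peptides (50 µg/mL) plus β2-microglobulin (5 µg/mL) at 28°C for 16–18 hours, then brefeldin A (10 µg/mL) at 37°C for 3 hours. Surface HLA-A2 was stained with FITC anti-HLA-A2 and read by flow cytometry. Binding is MFI relative to T2 cells loaded with HCV peptide C55-74 (MFI = 1).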

[1] = test system: pulmonary CD8+ T lymphocytes; assay: Number of CD8+ T cells in the lungs by flow cytometry after RSV challenge; format: in vivo, mouse; conditions: day 4 post RSV infection; flow cytometry of lung homogenate
Description: Whole lungs were perfused with 5 mL 1× PBS before excision. The isolated lung tissues were incubated with 1 µg/mL collagenase for 30 min before homogenizing with the iron mesh. The homogenate was centrifuged at 1,000 rpm for 10 min at 4°C to sediment the pulmonary cells. The cells were washed with 1× PBS and then resuspended in 1× PBS for further analysis by real-time RT-PCR and flow cytometry. For pulmonary IFN-γ detection, 5×10^6/mL cells were cultured with 10 U/mL recombinant IL-2 for 2 days and the supernatants were collected for ELISA.
Figure 5 Induction of pulmonary IFN-γ and CTL activity in peptide immunized transgenic mice challenged with RSV. At day 4 post RSV infection, lung homogenates were prepared and the following were measured. (A) IFN-γ expression by ELISA, and (B) the number of CD8^+ T cells in the lungs by flow cytometry using PE-cy5-labeled anti-CD8 antibody. (C). Enumeration of CTL activity in the lungs of mice immunized with CD8 peptide epitopes and challenged with RSV. […] The cell mixtures were labeled with 7-AAD and analyzed by flow cytometry. Results are expressed as mean percentage of 7-AAD/CFSE positive cells normalized with un-pulsed DCs. […]

CD4+CD25+ T cells = assay: Infiltration of CD4+CD25+ T cells in the lungs after RSV challenge; format: in vivo, mouse; conditions: mice pre-immunized with peptide and challenged with live RSV; unshown results

Sequence: YMLTNSELL [peptide 14, HLA-A*0201-restricted 9-mer synthetic peptide from F protein of RSV-B1 strain]
- T2-binding Ratio of MFI (HLA-A*0201): 1.71
- pulmonary CD8+ T cell numbers vs vehicle immunization [1]: lower
- infiltration of CD4+CD25+ T cells in the lungs (CD4+CD25+ T cells): increased infiltration
